# Results taken from patent US8629164B2, “Inhibitors of NF-κB” (Profectus Biosciences, Inc., priority 2009, dated 2014).
# Entries after “also recorded” stand apart in the source; their conditions may differ.
# Legend:
# [1] = tested on: human RPMI8226 multiple myeloma; test: RPMI8226 multiple myeloma xenograft in mice; format: in vivo
# Procedure: Neither PS-341 (1 mg/kg iv days 1, 4/week×4 weeks) nor the compound of Example 2 (15 mg/kg ip QD×21) treatment achieved statistical significant tumor growth inhibition in this study as compared to vehicle treatment (P>0.10).
# Several compounds have been assessed for efficacy studies in rodent disease models. We first sought to obtain in vivo efficacy of the compounds in multiple myeloma which has high incidence of constitutive activation of both the canonical and non-canonical pathways.
# [2] = tested on: mouse embryonic fibroblasts (MEFs)
# p52 = molecular target: T1, p52 (Homo sapiens, UniProt Q00653); test: TransAM NF-κB Family DNA Binding ELISA, p52; conditions: p52 binding IC50 (uM), cells without % sign
# T1 sequence (Q00653 1-454 limits assumed): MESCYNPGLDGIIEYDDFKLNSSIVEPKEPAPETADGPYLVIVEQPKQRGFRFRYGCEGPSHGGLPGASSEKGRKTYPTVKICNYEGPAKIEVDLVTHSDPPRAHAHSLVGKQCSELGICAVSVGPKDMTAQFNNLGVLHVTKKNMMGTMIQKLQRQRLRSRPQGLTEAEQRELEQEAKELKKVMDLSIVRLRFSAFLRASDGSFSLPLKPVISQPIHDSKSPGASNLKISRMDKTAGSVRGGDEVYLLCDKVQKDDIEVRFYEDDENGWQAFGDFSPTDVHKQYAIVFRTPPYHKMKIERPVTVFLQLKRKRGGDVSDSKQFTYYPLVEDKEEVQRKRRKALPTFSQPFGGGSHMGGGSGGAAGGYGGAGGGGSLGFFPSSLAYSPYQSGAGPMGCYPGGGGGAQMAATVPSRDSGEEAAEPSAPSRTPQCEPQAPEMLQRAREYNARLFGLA
# NF-κB [3] = test: NF-κB DNA binding activity of p65+/+ MEF nuclear extract after IR; conditions: p65+/+ MEFs
# NF-κB [4] = test: NF-κB-dependent luciferase expression after IR in p65+/+ MEFs; conditions: 10 Gy IR
# [5] = tested on: collagen-induced arthritis; test: Mouse model of collagen-induced rheumatoid arthritis (CIA)
# [6] = tested on: MDA-MB-231 breast cancer cells; test: Cytotoxicity and radio-sensitization in MDA-MB-231 breast cancer cells; format: cell-based
# p50 = molecular target: T2, p50 (Homo sapiens, UniProt P19838); test: TransAM NF-κB Family DNA Binding ELISA, p50; conditions: p50 binding IC50 (uM), cells without % sign
# T2 sequence (P19838 1-433 limits assumed): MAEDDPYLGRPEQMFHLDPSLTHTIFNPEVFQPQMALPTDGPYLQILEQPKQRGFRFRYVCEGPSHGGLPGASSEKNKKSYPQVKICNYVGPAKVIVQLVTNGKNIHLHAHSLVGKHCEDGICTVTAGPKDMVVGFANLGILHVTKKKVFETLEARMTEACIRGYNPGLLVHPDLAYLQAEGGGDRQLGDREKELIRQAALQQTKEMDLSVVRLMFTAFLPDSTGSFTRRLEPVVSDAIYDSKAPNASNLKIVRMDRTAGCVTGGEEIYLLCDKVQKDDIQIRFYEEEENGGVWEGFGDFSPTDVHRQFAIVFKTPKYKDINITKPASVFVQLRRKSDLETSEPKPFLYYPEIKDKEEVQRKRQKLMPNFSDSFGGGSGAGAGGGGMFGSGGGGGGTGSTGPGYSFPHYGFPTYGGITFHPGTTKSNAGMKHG
# [7] = tested on: IL-6 secretion from MDA-MB-231 cells; test: IL-6 secretion from MDA-MB-231 cells; format: cell-based
# Procedure: (§1) Specifically, A and B show the effects of the compound of Example 1 on IL-6 and IL-8 secretion from MDA-MB-231 cells stimulated by 20 ng/mL TNF-α. The cells were treated with the indicated concentrations of the compound of Example 1 for 2 hours, and then TNF-α was added and incubation continued for 4 hours.
# soluble IL-2Rα = test: Soluble IL-2Rα expression in PHA-P activated hPBMCs; format: cell-based, human; conditions: 10 μM, three days
# Procedure: The graph is the mean of 2 independent experiments.
# Soluble IL-2Rα is transcriptionally regulated by NF-κB. […] Human PBMCs were treated with 0, 0.2, 1, 10, 20 and 40 μM of the compound of Example 1 concurrent with PHA-P activation. The cells were cultured for an additional three days and media was harvested for marker assessment.
# COX-2 expression = test: LPS-induced COX-2 expression in RAW264.7 cells; format: cell-based, mouse; conditions: pretreatment, at 6 to 12 h
# From the text: LPS stimulation induces the expression of COX-2 the enzyme responsible for prostaglandin E2.
# [8] = tested on: human peripheral blood mononuclear cells (hPBMCs); test: Cytotoxicity to hPBMCs (CellTiter-Glo); format: cell-based
# Procedure: Human peripheral blood mononuclear cells (hPBMCs) were treated with example 1 or DHMEQ and the percentage of viable cells was assessed 24 hours post drug treatment. The graph represents the mean±the standard deviation of three replicate experiments.
# The cytotoxicity profile of the compound of Example 1. The cytotoxicity of the compound of Example 1 was determined for human peripheral blood mononuclear cells (hPBMCs). As with the activity assay, the hPBMCs were treated with 0, 0.2, 1, 10, 20 and 40 μM of the compound of Example 1 for 2 hours, and then induced with 20 ng/ml TNF-α for 48 hours. The number of viable cells was determined using CellTiter-Glo luminescent cell viability assay (Promega (cat #G7573)). […] The selectivity index (the ratio of cytotoxicity CC50 to inhibitory IC50) is assigned to the compound of Example 1.
# [9] = tested on: IL-8 secretion from MDA-MB-231 cells; test: IL-8 secretion from MDA-MB-231 cells; format: cell-based
# Procedure: as §1
# [10] = 20 μM, TNF-α 20 ng/mL, MDA-MB-231
compound,measurement,setting,value
"O=C(NC1=CC(=O)C2OC2C1O)c1cc2ccccc2nc1O (racemic) [Example 2, (±)-2-hydroxy-N-(2-hydroxy-5-oxo-7-oxabicyclo[4.1.0]hept-3-en-3-yl)quinoline-3-carboxamide]",RPMI8226 tumor growth reduction,"[1]; Example 2 15 mg/kg ip QD×21, xenograft mice, 15 mg/kg",same level of tumor growth reduction as PS-341; also recorded: reduced RPMI8226 tumor growth
same,tolerability in xenograft model,"[1]; mouse, in vivo",better tolerated than PS-341
same,cytotoxicity to MEFs,[2]; 1.4 μM,non-cytotoxic
same,radio-sensitivity of PARP-1+/+ MEFs to IR,[2]; 1.4 μM,increased radio-sensitivities
same,LD50 of IR + compound,"[2]; p65+/+ MEFs, 1.4 μM, IR alone 2.3 Gy",1.5 Gy
same,radio-sensitization of p65−/− MEFs,[2]; p65−/− MEFs,no further effect
same,IC50,p52,6 µM
same,nuclear extract NF-κB DNA binding activities after IR,NF-κB [3],significantly decreased
same,NF-κB-dependent luciferase expression after IR,NF-κB [4],reduced luciferase gene transcription significantly; also recorded: significantly reduced luciferase expression
same,anti-inflammation effects vs vehicle treated group,"[5]; Example 2 15 mg/kg s.c. qd 21-35, etanercept 50 ug/mouse ip qd 21-35, P<0.05",statistal significant anti-inflammation effects
same,hind paw erythema and swelling (arthritis index score),[5]; daily d21-d35,significantly reduced
same,histological evaluation of joints,[5]; day 35,significant reduction of inflammation
same,myeloperoxidase activities,"[5]; mouse, in vivo",concomitant reduction
same,tolerability of efficacious doses in mice,"[5]; mouse, in vivo",well tolerated
same,enhancement of radiation effect,"[6]; 0.2 μM, MDA-MB-231",1.5 fold
same,LD50 of IR + compound,"[6]; 0.2 μM, MDA-MB-231, IR alone 2.55 Gy",1.66 Gy
same,"LD50, single agent cytotoxic effect",[6]; MDA-MB-231 cells,0.4 µM
same,IC50,p50,2.1 µM
"O=C(NC1=CC(=O)C2OC2C1O)c1cccnc1O (racemic) [Example 1, (±)-2-hydroxy-N-(2-hydroxy-5-oxo-7-oxabicyclo[4.1.0]hept-3-en-3-yl)nicotinamide]","IL-6 secretion, TNF-α stimulated",[7]; [10],completely inhibited
same,inhibition of constitutive IL-6 secretion,"[7]; MDA-MB-231, unstimulated",dose-dependent manner
same,effect on sIL-2Rα,soluble IL-2Rα,statistically significant affect
same,IC50,p52,13 µM
same,LPS-induced COX-2 expression,COX-2 expression,strong inhibition
same,selectivity (cytotoxicity CC50 to inhibitory IC50) compared to DHMEQ,[8],greater selectivity
same,cytotoxicity to hPBMCs,[8]; up to 40 μM tested,little detectable toxicity; also recorded: little cytotoxic effect
same,IC50,p50,26 µM
same,"IL-8 secretion, TNF-α stimulated",[9]; [10],completely inhibited
same,inhibition of constitutive IL-8 secretion,"[9]; MDA-MB-231, unstimulated",dose-dependent manner
